According to patent US11180474B2 (BRISTOL-MYERS SQUIBB COMPANY, priority 2016, dated 2021):
pIC50: −log10 of the molar value. Counter-ions that a name gives are not always drawn.

Key:
human TLR7 = molecular target: T1, human TLR7 (Homo sapiens, UniProt Q9NYK1); test: TLR7 inhibition reporter assay (HEK-Blue cells, SEAP reporter, gardiquimod stimulation); type: cell-based; details: HEK-Blue cells overexpressing human TLR7, gardiquimod 7.5 μM
T1 construct: host or cells: HEK-Blue cells
T1 sequence (Q9NYK1 27-1049): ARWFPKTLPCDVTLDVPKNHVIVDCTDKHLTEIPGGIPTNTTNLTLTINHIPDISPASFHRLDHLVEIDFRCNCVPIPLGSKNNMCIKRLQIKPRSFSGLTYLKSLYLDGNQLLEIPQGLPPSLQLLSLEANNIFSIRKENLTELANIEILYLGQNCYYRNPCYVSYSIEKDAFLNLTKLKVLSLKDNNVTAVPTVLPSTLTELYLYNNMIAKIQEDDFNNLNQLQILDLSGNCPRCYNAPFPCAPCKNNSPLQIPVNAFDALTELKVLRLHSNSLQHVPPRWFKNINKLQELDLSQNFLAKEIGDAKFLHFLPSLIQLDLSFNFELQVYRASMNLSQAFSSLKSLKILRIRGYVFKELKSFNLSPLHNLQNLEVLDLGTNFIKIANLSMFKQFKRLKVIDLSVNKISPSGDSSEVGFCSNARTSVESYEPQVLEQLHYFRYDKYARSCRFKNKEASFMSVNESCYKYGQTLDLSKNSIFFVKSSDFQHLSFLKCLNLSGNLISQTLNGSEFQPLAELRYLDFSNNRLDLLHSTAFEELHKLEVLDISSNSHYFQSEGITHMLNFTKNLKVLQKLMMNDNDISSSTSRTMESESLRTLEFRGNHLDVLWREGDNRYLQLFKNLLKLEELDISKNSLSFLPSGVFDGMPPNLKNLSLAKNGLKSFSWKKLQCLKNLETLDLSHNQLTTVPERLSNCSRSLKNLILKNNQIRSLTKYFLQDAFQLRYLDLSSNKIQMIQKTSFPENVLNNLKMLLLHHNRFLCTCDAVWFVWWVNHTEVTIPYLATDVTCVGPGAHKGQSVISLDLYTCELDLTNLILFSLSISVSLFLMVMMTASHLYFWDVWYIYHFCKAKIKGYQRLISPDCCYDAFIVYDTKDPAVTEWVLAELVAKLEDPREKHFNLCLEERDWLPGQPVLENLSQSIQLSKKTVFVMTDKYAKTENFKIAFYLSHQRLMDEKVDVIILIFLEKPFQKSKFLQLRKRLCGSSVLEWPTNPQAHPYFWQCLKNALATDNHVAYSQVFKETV
Outline: (§1)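 In this cell reporter format, test compounds at 0.05 nM-50 μM final incubate 22 h with seeded cells (TLR7 15000, TLR8 20,000 per well). SEAP read-out by HEK-Blue Detection medium yields % inhibition relative to agonist/DMSO and known-inhibitor wells.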

human TLR8 = molecular target: T2, human TLR8 (Homo sapiens, UniProt Q9NR97); test: TLR8 inhibition reporter assay (HEK-Blue cells, SEAP reporter, R848 stimulation); type: cell-based; details: HEK-Blue cells overexpressing human TLR8, R848 15.9 μM
T2 construct: host or cells: HEK-Blue cells
T2 sequence (Q9NR97 27-1041): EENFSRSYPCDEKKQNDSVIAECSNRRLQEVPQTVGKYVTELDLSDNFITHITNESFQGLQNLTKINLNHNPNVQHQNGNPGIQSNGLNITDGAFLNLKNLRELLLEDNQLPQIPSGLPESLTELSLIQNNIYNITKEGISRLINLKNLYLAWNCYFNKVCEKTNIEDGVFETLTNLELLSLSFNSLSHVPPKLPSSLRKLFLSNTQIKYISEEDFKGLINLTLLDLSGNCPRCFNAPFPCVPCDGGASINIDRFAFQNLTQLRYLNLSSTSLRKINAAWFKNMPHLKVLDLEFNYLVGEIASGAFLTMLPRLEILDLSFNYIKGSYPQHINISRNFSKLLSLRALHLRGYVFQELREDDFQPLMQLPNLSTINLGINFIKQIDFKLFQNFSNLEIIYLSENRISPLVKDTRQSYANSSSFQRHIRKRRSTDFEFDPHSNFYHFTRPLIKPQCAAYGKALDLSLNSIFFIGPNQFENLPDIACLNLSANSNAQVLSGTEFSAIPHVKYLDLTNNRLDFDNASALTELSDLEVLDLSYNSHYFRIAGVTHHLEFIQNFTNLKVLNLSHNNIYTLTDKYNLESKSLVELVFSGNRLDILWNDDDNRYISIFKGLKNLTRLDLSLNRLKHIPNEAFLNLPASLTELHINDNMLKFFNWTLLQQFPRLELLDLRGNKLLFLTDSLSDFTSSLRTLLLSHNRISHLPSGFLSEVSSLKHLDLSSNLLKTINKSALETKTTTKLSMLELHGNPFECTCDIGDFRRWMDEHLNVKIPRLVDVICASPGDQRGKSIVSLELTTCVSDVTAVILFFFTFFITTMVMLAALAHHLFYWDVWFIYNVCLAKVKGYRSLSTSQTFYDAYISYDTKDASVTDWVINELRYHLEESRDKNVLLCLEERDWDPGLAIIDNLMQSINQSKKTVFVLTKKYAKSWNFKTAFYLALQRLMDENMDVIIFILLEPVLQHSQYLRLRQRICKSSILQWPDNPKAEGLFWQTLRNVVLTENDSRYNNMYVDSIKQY
Outline: as §1

SMILES	pIC50 (human TLR7)	pIC50 (human TLR8)
CCc1c(-c2ccc(OC)c(OC)c2)[nH]c2ccc(C3CCN(C(=O)C(C)(C)OC(C)=O)CC3)cc12 [Example 175, 1-(4-(2-(3,4-dimethoxyphenyl)-3-ethyl-1H-indol-5-yl)piperidin-1-yl)-2-methyl-1-oxopropan-2-yl acetate]	5.77	5.69
CCc1c(-c2ccc(OC)c(OC)c2)[nH]c2ccc(C3CCN(C4CCN(Cc5coc(C)n5)CC4)CC3)cc12 [Example 126, 4-((4-(2-(3,4-dimethoxyphenyl)-3-ethyl-1H-indol-5-yl)-[1,4′-bipiperidin]-1′-yl)methyl)-2-methyloxazole]	6.04	6.94
CCc1c(-c2ccc(OC)c(OC)c2)[nH]c2ccc(C3CCN(CC(C)C(F)(F)F)CC3)cc12 (stereo not drawn) [Example 180, 2-(3,4-dimethoxyphenyl)-3-ethyl-5-(1-(3,3,3-trifluoro-2-methylpropyl)piperidin-4-yl)-1H-indole]	≤ 4.30	6.11
CCc1c(-c2ccc(OC)c(OC)c2)[nH]c2c(F)cc(C3CCN(C4CCN(CC(C)C)CC4)CC3)cc12 [Example 190, 2-(3,4-dimethoxyphenyl)-3-ethyl-7-fluoro-5-(1′-isobutyl-[1,4′-bipiperidin]-4-yl)-1H-indole]	6.23	5.75
CCc1c(-c2ccc(OC)c(OC)c2)[nH]c2ccc(C3CCN(C(=O)CNCC#N)CC3)cc12 [Example 161, 2-((2-(4-(2-(3,4-dimethoxyphenyl)-3-ethyl-1H-indol-5-yl)piperidin-1-yl)-2-oxoethyl)amino)acetonitrile]	5.92	6.48
COc1ccc(-c2[nH]c3ccc(C4CCN(C5CCN(CC(C)C)CC5)CC4)cc3c2Cl)cc1OC [Example 120, 3-chloro-2-(3,4-dimethoxyphenyl)-5-(1′-isobutyl-[1,4′-bipiperidin]-4-yl)-1H-indole di-trifluoroacetic acid]	5.56	5.90
CCc1c(-c2ccc(OC)c(OC)c2)[nH]c2ccc(C3CCN(C4CCN(Cc5c(C)noc5C)CC4)CC3)cc12 [Example 138, 4-((4-(2-(3,4-dimethoxyphenyl)-3-ethyl-1H-indol-5-yl)-[1,4′-bipiperidin]-1′-yl)methyl)-3,5-dimethylisoxazole]	5.45	6.57
CCc1c(-c2ccc(OC)c(OC)c2)[nH]c2c(F)cc(C3CCN(CCNC)CC3)cc12 [Example 191, 2-(4-(2-(3,4-dimethoxyphenyl)-3-ethyl-7-fluoro-1H-indol-5-yl)piperidin-1-yl)-N-methylethan-1-amine]	5.92	6.96
CCCc1c(-c2ccc(OC)c(OC)c2)[nH]c2ccc(C3CCN(C4CCN(CC(C)C)CC4)CC3)cc12 [Example 121, 2-(3,4-dimethoxyphenyl)-5-(1′-isobutyl-[1,4′-bipiperidin]-4-yl)-3-propyl-1H-indole-di-trifluoroacetic acid]	6.18	7.19

Further compounds by rising pIC50 (human TLR7), results first:

pIC50 (human TLR7)	pIC50 (human TLR8)	SMILES
6.24	6.69	CCc1c(-c2ccc(OC)c(OC)c2)[nH]c2ccc(C3CCN(C4CCN(Cc5sccc5C)CC4)CC3)cc12 [Example 139, 2-(3,4-dimethoxyphenyl)-3-ethyl-5-(1′-((3-methylthiophen-2-yl)methyl)-[1,4′-bipiperidin]-4-yl)-1H-indole]
6.42	7.66	COc1ccc(-c2[nH]c3ccc(C4CCN(C5CCN(CC6CC6)CC5)CC4)cc3c2C(C)C)cc1OC [Example 198, 5-(1′-(cyclopropylmethyl)-[1,4′-bipiperidin]-4-yl)-2-(3,4-dimethoxyphenyl)-3-isopropyl-1H-indole di trifluoroacetic acid]
6.43	7.25	CCc1c(-c2ccc(OC)c(OC)c2)[nH]c2ccc(C3CCN(C4CCN(Cc5cc(C)n[nH]5)CC4)CC3)cc12 [Example 131, 2-(3,4-dimethoxyphenyl)-3-ethyl-5-(1′-((3-methyl-1H-pyrazol-5-yl)methyl)-[1,4′-bipiperidin]-4-yl)-1H-indole]
6.46	7.51	CCc1c(-c2ccc(OC)c(OC)c2)[nH]c2ccc(C3CCN(C4CCN(CC)CC4)CC3)cc12 [Example 149, 2-(3,4-dimethoxyphenyl)-3-ethyl-5-(1′-ethyl-[1,4′-bipiperidin]-4-yl)-1H-indole]
6.53	7.00	CCc1c(-c2ccc(OC)c(OC)c2)[nH]c2ccc(C3CCN(C4CCN(Cc5ccccc5)CC4)CC3)cc12 [Example 147, 5-(1′-benzyl-[1,4′-bipiperidin]-4-yl)-2-(3,4-dimethoxyphenyl)-3-ethyl-1H-indole]
6.56	6.08	CCc1c(-c2ccc(OC)c(OC)c2)[nH]c2ccc(C3CCN(C(C)=O)CC3)cc12 [Example 185, 1-(4-(2-(3,4-dimethoxyphenyl)-3-ethyl-1H-indol-5-yl)piperidin-1-yl)ethan-1-one]
6.77	6.71	CCc1c(-c2ccc(OC)c(OC)c2)[nH]c2cc(OC)c(C3CCN(C4CCN(C(C)C)CC4)CC3)cc12 [Example 192, 2-(3,4-dimethoxyphenyl)-3-ethyl-5-(1′-isopropyl-[1,4′-bipiperidin]-4-yl)-6-methoxy-1H-indole]
6.87	7.54	CCc1c(-c2ccc(OC)c(OC)c2)[nH]c2ccc(C3CCN(CCNC)CC3)cc12 [Example 155, 2-(4-(2-(3,4-dimethoxyphenyl)-3-ethyl-1H-indol-5-yl)piperidin-1-yl)-N-methylethanamine di-trifluoroacetic acid]
6.89	6.54	CCN(CC)C(=O)CN(C)CC(=O)N1CCC(c2ccc3[nH]c(-c4ccc(OC)c(OC)c4)c(C(C)C)c3c2)CC1 [Example 203, 2-((2-(4-(2-(3,4-dimethoxyphenyl)-3-isopropyl-1H-indol-5-yl)piperidin-1-yl)-2-oxoethyl)(methyl)amino)-N,N-diethylacetamide, TFA]
7.02	6.88	CCc1c(-c2ccc(OC)c(OC)c2)[nH]c2ccc(C3CCN(C(=O)C4CCNCC4)CC3)cc12 [Example 186, (4-(2-(3,4-dimethoxyphenyl)-3-ethyl-1H-indol-5-yl)piperidin-1-yl)(piperidin-4-yl) methanone]
7.14	7.27	COc1ccc(-c2[nH]c3ccc(C4CCNCC4)cc3c2C(C)C)cc1OC [Example 194, 2-(3,4-dimethoxyphenyl)-3-isopropyl-5-(piperidin-4-yl)-1H-indole hydrochloride]
7.92	7.62	COc1ccc(-c2[nH]c3ccc(C4CCN(C(=O)CN(C)C)CC4)cc3c2C(C)C)cc1OC [Example 209, 1-(4-(2-(3,4-dimethoxyphenyl)-3-isopropyl-1H-indol-5-yl)piperidin-1-yl)-2-(dimethylamino)ethan-1-one]
